Laboratory results reported in PubChem BioAssay (NCI).
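Tested at 5 concentrations; 48 h exposure; 96-well plates; endpoints linearly interpolated, else capped at highest concentration. Here, GI50 denotes the concentration required for 50% inhibition of growth. At the TGI there is no net growth.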

What was measured:
Test in all cases: NCI anticancer screen, dose series, 48 h
CCRF-CEM leukemia = system: CCRF-CEM leukemia
COLO 205 colon = system: COLO 205 colon
HOP-92 NSCLC = system: HOP-92 NSCLC
LOX IMVI melanoma = system: LOX IMVI melanoma
NCI-H23 lung = system: NCI-H23 lung
NCI-H460 lung = system: NCI-H460 lung
OVCAR-4 ovarian = system: OVCAR-4 ovarian
SF-295 CNS = system: SF-295 CNS
U251 CNS = system: U251 CNS
UACC-257 melanoma = system: UACC-257 melanoma

SMILES	TGI (CCRF-CEM leukemia)	TGI (COLO 205 colon)	TGI (HOP-92 NSCLC)	TGI (LOX IMVI melanoma)	TGI (NCI-H23 lung)	TGI (NCI-H460 lung)	TGI (OVCAR-4 ovarian)	TGI (SF-295 CNS)	TGI (U251 CNS)	TGI (UACC-257 melanoma)	GI50 (CCRF-CEM leukemia)	GI50 (COLO 205 colon)	GI50 (HOP-92 NSCLC)	GI50 (LOX IMVI melanoma)	GI50 (NCI-H23 lung)	GI50 (NCI-H460 lung)	GI50 (OVCAR-4 ovarian)	GI50 (SF-295 CNS)	GI50 (U251 CNS)	GI50 (UACC-257 melanoma)
O=C1[C@@H]2C(c3ccccc3[N+](=O)[O-])=[N+](c3ccccc3)O[C@@H]2C(=O)N1c1ccc(Cc2ccc(N3C(=O)[C@H]4C(c5ccccc5[N+](=O)[O-])=[N+](c5ccccc5)O[C@H]4C3=O)cc2)cc1	> 100 µM	> 100 µM	> 100 µM	> 100 µM	> 100 µM	> 100 µM	> 100 µM	> 100 µM	> 100 µM	> 100 µM	–	–	–	–	–	–	–	–	–	–
CCNC(=O)Nc1ccc(Oc2ccnc3ccc4c(ccn4C)c23)cc1	> 100 µM	> 100 µM	> 100 µM	40.7 µM	> 100 µM	> 100 µM	> 100 µM	72.1 µM	44.7 µM	86.2 µM	18.9 µM	29.8 µM	45.5 µM	20.4 µM	> 100 µM	25 µM	54.2 µM	18.9 µM	20.6 µM	28.4 µM
C=C1C(=O)O[C@H]2[C@H]1CC/C(C=Nc1c(N)cc(C(F)(F)F)cc1C(F)(F)F)=C\CC[C@@]1(C)O[C@@H]21	> 100 µM	3.04 µM	3.09 µM	2.3 µM	4.17 µM	3.38 µM	3.05 µM	17.1 µM	2.98 µM	3.14 µM	0.55 µM	1.35 µM	1.22 µM	1.07 µM	1.77 µM	1.53 µM	1.52 µM	5.1 µM	1.56 µM	1.59 µM
S=C(NCCNC(=S)[S][Sn]([c]1ccccc1)([c]1ccccc1)[c]1ccccc1)[S][Sn]([c]1ccccc1)([c]1ccccc1)[c]1ccccc1	0.657 µM	0.0411 µM	0.0493 µM	0.0541 µM	0.119 µM	0.0575 µM	0.0805 µM	0.227 µM	0.064 µM	0.117 µM	0.0179 µM	0.0166 µM	0.0102 µM	0.0152 µM	0.0273 µM	0.0169 µM	0.0212 µM	0.099 µM	0.0187 µM	0.0522 µM
COCCNc1ccc2c3c(cccc13)C(=O)N(CCN(C)C)C2=O	> 25 µM	12.5 µM	> 25 µM	> 25 µM	> 25 µM	11.4 µM	> 25 µM	21.1 µM	> 25 µM	> 25 µM	6.38 µM	2.74 µM	10.2 µM	7.06 µM	8.04 µM	4.63 µM	11.8 µM	6.31 µM	8.71 µM	7.23 µM
CCCc1cc(=O)n2c(C(=O)Nc3cccc(C(=O)OCC)c3)c(C(=O)Nc3ccc(F)cc3)sc2n1	> 140 µM	> 140 µM	7.99 µM	> 140 µM	> 140 µM	> 140 µM	20.9 µM	> 140 µM	48.6 µM	> 140 µM	> 140 µM	70.8 µM	1.33 µM	6.65 µM	66.3 µM	13.3 µM	3.27 µM	44.6 µM	3.55 µM	54.1 µM
CN1CCC2(CC1)NC(=O)c1c(c3ccc(Cl)c(Cl)c3n1C)C2C#N (stereo not given)	> 54.8 µM	3.83 µM	19.6 µM	18.1 µM	25.7 µM	14.3 µM	> 56 µM	25.3 µM	26.2 µM	4.71 µM	6.32 µM	1.8 µM	2.52 µM	4.71 µM	11.4 µM	2.75 µM	11.7 µM	10 µM	11.1 µM	2.12 µM
Cc1nn2c(nc1=O)sc1ccc3ccccc3c12	> 100 µM	> 100 µM	> 100 µM	> 100 µM	> 100 µM	> 100 µM	> 100 µM	> 100 µM	> 100 µM	> 100 µM	–	–	–	–	–	–	–	–	–	–
CCN1C(=O)N(CC)C2C1NN=c1s/c(=C\c3ccco3)c(=O)n12 (stereo not given)	> 100 µM	> 23.6 µM	> 100 µM	> 100 µM	> 100 µM	> 100 µM	> 100 µM	> 44.6 µM	> 100 µM	> 100 µM	0.368 µM	0.403 µM	0.349 µM	0.653 µM	1.1 µM	0.403 µM	4.24 µM	0.47 µM	0.576 µM	> 100 µM
CCCCCCCCCCCC(=O)N1CCN(C(C)=O)CC1	40.6 µM	33.6 µM	27.4 µM	> 100 µM	40.8 µM	38.1 µM	> 100 µM	63 µM	> 100 µM	36.9 µM	18.7 µM	18.1 µM	11.5 µM	34.4 µM	19.5 µM	19.8 µM	32.8 µM	26.6 µM	50.5 µM	19.4 µM
O=C(O)C(C(=O)O)P(=S)(S)c1ccccc1 (stereo not given)	> 100 µM	> 100 µM	> 100 µM	> 100 µM	> 100 µM	> 100 µM	> 100 µM	> 100 µM	> 100 µM	> 100 µM	–	–	–	–	–	–	–	–	–	–
Cc1ccc(-c2cc3c4c(nc5ccccc53)C(=O)c3cccnc3-c4n2)cc1	> 100 µM	30.1 µM	> 100 µM	14.5 µM	20.9 µM	16.4 µM	73.8 µM	25.7 µM	> 66.9 µM	20.8 µM	8.04 µM	16.3 µM	26.5 µM	3.4 µM	7.03 µM	3.14 µM	15.6 µM	12.4 µM	9.51 µM	6.01 µM
Clc1ccc(Nc2ccnc(N3CCN(c4ccnc5cc(Cl)ccc45)CC3)n2)cc1	20.6 µM	4.63 µM	4.18 µM	3.58 µM	52.3 µM	6.76 µM	> 100 µM	4.23 µM	11.1 µM	13.5 µM	3.07 µM	1.92 µM	0.935 µM	1.84 µM	4.32 µM	2.33 µM	2.56 µM	1.73 µM	2.84 µM	3.05 µM
O=c1[nH]c(=O)c2cc3cc(C4CC(O)C(CO)O4)ccc3cc2[nH]1 (stereo not given)	> 100 µM	> 100 µM	> 100 µM	> 100 µM	> 100 µM	> 100 µM	> 100 µM	> 100 µM	> 100 µM	> 100 µM	> 100 µM	> 100 µM	> 100 µM	> 100 µM	> 100 µM	> 100 µM	58.7 µM	> 100 µM	> 100 µM	> 100 µM
CCCNCC(=O)O[C@]1(CC)C(=O)OCc2c1cc1n(c2=O)Cc2cc3ccccc3nc2-1	0.308 µM	3.07 µM	3.6 µM	0.662 µM	0.321 µM	0.154 µM	3.99 µM	2.1 µM	0.244 µM	1.88 µM	–	–	–	–	–	–	–	–	–	–
C[C@]12CC[C@@H]3c4cc(O)c(O)cc4CC[C@H]3[C@@H]1CC[C@@H]2O	20.2 µM	> 73.3 µM	29 µM	23.6 µM	> 83.7 µM	18.1 µM	> 100 µM	32.9 µM	35.1 µM	> 100 µM	1.67 µM	28.9 µM	3.32 µM	5.97 µM	5.31 µM	3.75 µM	16.2 µM	7.19 µM	6.86 µM	13 µM
N#C[Se]CCN1C(=O)C2C(C1=O)[C@H]1C=C[C@@H]2S1 (stereo not given in full)	6.14 µM	6.42 µM	3.94 µM	4.12 µM	6.51 µM	6.77 µM	6.1 µM	3.35 µM	4.13 µM	5.4 µM	1.84 µM	2.45 µM	1.88 µM	1.67 µM	2.46 µM	1.93 µM	1.85 µM	1.83 µM	1.8 µM	1.97 µM
